The text below walks through data of patent US7163696B2, “Pharmaceutical formulations” (Pfizer Inc., priority 2001, dated 2007).

Series [1] can be described thus: Bioavailability testing by the applicants (unpublished). The conditions noted are these: in vivo.
A short description of series [2]: Measurement of Papp values across Caco-2 cell monolayers (Example 15). Type of series: in vitro ADME. The conditions noted are these: human, initial concentration in donor (apical) chamber 25 μM, 37° C. An excerpt:
P Artursson and J Karlsson described the use of monolayers of Caco-2 cells to generate apparent permeability coefficients (Papp values) for drug absorption across the intestinal epithelium in ‘Correlation between oral drug absorption in humans and apparent drug permeability coefficients in human intestinal epithelial (Caco-2) cells’, Biochemical and Biophysical Research Communications, Vol 175 (3), pp 880–885, 1991.
Preferably, when measuring the Papp value, the initial concentration of test compound in the donor chamber is at a relevant therapeutic concentration, for example 25 μM.
Caco-2 cells originating from a human colon carcinoma were obtained from the ATCC (HTB-37) and were used between passage number 24–44. Cells were maintained in MEM with Earles salts containing 2 mM L-glutamine, 1 mM sodium pyruvate, 1% (v/v) MEM non-essential amino acids (Gibco) and 20% foetal calf serum (Sigma) at 37° C. in an atmosphere of 5% CO2 and 90% relative humidity. Falcon 24 well filter inserts (Becton Dickinson) were seeded with 4×10^4 cells/well. […]
Transport data across the Caco-2 cell monolayers is expressed as Papp values. Papp values are calculated according to the equation disclosed by Artursson and Karlsson as follows: Papp=(dQ/dt)(1/AC0), wherein dQ/dt is the permeability rate, Co the initial concentration in the donor chamber, and A the surface area of the monolayer.

What is called Papp A→B is how fast a substance crosses the layer from the apical side. Low values mean poor permeation, high ones ready permeation.

With `COc1cc2nc(N3CCc4c(cccc4NS(C)(=O)=O)C3)nc(N)c2c(-c2ccccn2)c1OC` [4-amino-6,7-dimethoxy-2-(5-methanesulfonamido-1,2,3,4-tetrahydroisoquinol-2-yl)-5-(2-pyridyl)quinazoline], the “absorption from the colon” value in series [1] was “low, and highly variable”.
In series [2], `COc1cc2nc(N3CCc4c(cccc4NS(C)(=O)=O)C3)nc(N)c2c(-c2ccccn2)c1OC.CS(=O)(=O)O` [4-amino-6,7-dimethoxy-2-(5-methanesulfonamido-1,2,3,4-tetrahydroisoquinol-2-yl)-5-(2-pyridyl)quinazoline mesylate] returned a Papp A→B at 2 h, 25 μM of 11 ×10⁻⁶ cm/s.
